According to ChEMBL document CHEMBL4387766, “Synthesis and biological evaluation of PSMA-targeting paclitaxel conjugates” (Bioorg Med Chem Lett, 2019):

Legend:
[1] = Cytotoxicity against human VA13 cells assessed as reduction in cell viability measured after 72 hrs by MTT assay; type: cell-based; conditions: WI-38 VA13 cells
LNCaP = experiment: Cytotoxicity against PSMA-positive human LNCAP cells assessed as reduction in cell viability measured after 72 hrs by MTT assay; type: functional
CWR22R = experiment: Cytotoxicity against PSMA-positive human 22Rv1 cells assessed as reduction in cell viability measured after 72 hrs by MTT assay; type: functional; conditions: 22Rv1, 72 h
PC-3 = experiment: Cytotoxicity against PSMA-deficient human PC3 cells assessed as reduction in cell viability measured after 72 hrs by MTT assay; type: functional; conditions: PC-3, 72 h
[2] = Cytotoxicity against HEK293T cells assessed as reduction in cell viability measured after 72 hrs by MTT assay; type: cell-based, HEK-293T; conditions: human
[3] = Cytotoxicity against human MCF7 cells assessed as reduction in cell viability measured after 72 hrs by MTT assay; type: cell-based
[4] = Cytotoxicity against human A549 cells assessed as reduction in cell viability measured after 72 hrs by MTT assay; type: cell-based
[5] = Selectivity ratio of CC50 for human PSMA-deficient PC3 cells to CC50 for PSMA-positive human LNCAP cells; type: functional
[6] = Selectivity ratio of CC50 for human VA13 cells to CC50 for PSMA-positive human LNCAP cells
[7] = Selectivity ratio of CC50 for human PSMA-deficient PC3 cells to CC50 for PSMA-positive human 22Rv1 cells; type: functional
[8] = Selectivity ratio of CC50 for human VA13 cells to CC50 for PSMA-positive human 22Rv1 cells

With `CC(=O)O[C@H]1C(=O)[C@@]2(C)[C@H]([C@H](OC(=O)c3ccccc3)[C@]3(O)C[C@H](OC(=O)[C@H](OC(=O)CCCc4cn(CCCCCC(=O)N(CCCC[C@H](NC(=O)N[C@@H](CCC(=O)O)C(=O)O)C(=O)O)Cc5ccc(Br)cc5)nn4)[C@@H](NC(=O)c4ccccc4)c4ccccc4)C(C)=C1C3(C)C)[C@]1(OC(C)=O)CO[C@@H]1C[C@@H]2O` the CC50 at 72 h [1] was 45 nM, the CC50 (LNCaP) was 510 nM and the CC50 (CWR22R) was 1130 nM. The CC50 (PC-3) was 876 nM, the CC50 at 72 h [2] was 38 nM and the CC50 at 72 h [3] was 94 nM. For the same compound, the CC50 at 72 h [4] was under 30 nM, the Selectivity ratio [5] was 0.85 and the Selectivity ratio [6] was 0.33. For the same compound, the Selectivity ratio [7] was 1.15 and the Selectivity ratio [8] was 0.45.
`CC(=O)O[C@H]1C(=O)[C@]2(C)[C@@H](OC(=O)CCCc3cn(CCCCCCCCCCC(=O)NCCCC[C@H](NC(=O)N[C@@H](CCC(=O)O)C(=O)O)C(=O)O)nn3)C[C@H]3OC[C@@]3(OC(C)=O)[C@H]2[C@H](OC(=O)c2ccccc2)[C@]2(O)C[C@H](OC(=O)[C@H](O)[C@@H](NC(=O)c3ccccc3)c3ccccc3)C(C)=C1C2(C)C` showed a CC50 at 72 h [1] of 1160 nM, a CC50 (LNCaP) of 1010 nM and a CC50 (CWR22R) of 2640 nM. For the same compound, the CC50 (PC-3) was 2920 nM, the CC50 at 72 h [2] was 730 nM and the CC50 at 72 h [3] was 1210 nM. For the same compound, the CC50 at 72 h [4] was 632 nM, the Selectivity ratio [5] was 1.43 and the Selectivity ratio [6] was 0.53. For the same compound, the Selectivity ratio [7] was 1.61 and the Selectivity ratio [8] was 0.59.
`CC(=O)O[C@H]1C(=O)[C@@]2(C)[C@H]([C@H](OC(=O)c3ccccc3)[C@]3(O)C[C@H](OC(=O)[C@H](OC(=O)CCCc4cn(CCCCCCCCCCC(=O)N(CCCC[C@H](NC(=O)N[C@@H](CCC(=O)O)C(=O)O)C(=O)O)Cc5ccc(Cl)cc5)nn4)[C@@H](NC(=O)c4ccccc4)c4ccccc4)C(C)=C1C3(C)C)[C@]1(OC(C)=O)CO[C@@H]1C[C@@H]2O` showed a CC50 at 72 h [1] of 24 nM, a CC50 (LNCaP) of 44 nM and a CC50 (CWR22R) of 120 nM. The CC50 (PC-3) was 20 nM, the CC50 at 72 h [2] was 23 nM and the CC50 at 72 h [3] was 56.5 nM. For the same compound, the CC50 at 72 h [4] was under 30 nM, the Selectivity ratio [5] was 0.22 and the Selectivity ratio [6] was 0.43. It also gave a Selectivity ratio [7] of 0.24 and a Selectivity ratio [8] of 0.47.
Compound `CC(=O)O[C@H]1C(=O)[C@@]2(C)[C@H]([C@H](OC(=O)c3ccccc3)[C@]3(O)C[C@H](OC(=O)[C@H](OC(=O)CCCc4cn(CCCCCCCCCCC(=O)N(CCCC[C@H](NC(=O)N[C@@H](CCC(=O)O)C(=O)O)C(=O)O)Cc5ccc(F)cc5)nn4)[C@@H](NC(=O)c4ccccc4)c4ccccc4)C(C)=C1C3(C)C)[C@]1(OC(C)=O)CO[C@@H]1C[C@@H]2O` has a CC50 at 72 h [1] of 27 nM, a CC50 (LNCaP) of 467 nM and a CC50 (CWR22R) of 1140 nM. It also gave a CC50 (PC-3) of 479 nM, a CC50 at 72 h [2] of 41 nM and a CC50 at 72 h [3] of 66 nM. The CC50 at 72 h [4] was under 30 nM, the Selectivity ratio [5] was 0.51 and the Selectivity ratio [6] was 0.54. The Selectivity ratio [7] was 0.62 and the Selectivity ratio [8] was 0.65.
In the case of `CC(=O)O[C@H]1C(=O)[C@@]2(C)[C@H]([C@H](OC(=O)c3ccccc3)[C@]3(O)C[C@H](OC(=O)[C@H](OC(=O)CCCc4cn(CCCCCCCCCCC(=O)N(CCCC[C@H](NC(=O)N[C@@H](CCC(=O)O)C(=O)O)C(=O)O)Cc5ccc(Br)cc5)nn4)[C@@H](NC(=O)c4ccccc4)c4ccccc4)C(C)=C1C3(C)C)[C@]1(OC(C)=O)CO[C@@H]1C[C@@H]2O`, the CC50 at 72 h [1] is reported as under 30 nM, the CC50 (LNCaP) is reported as 67 nM and the CC50 (CWR22R) is reported as 53 nM. For the same compound, the CC50 (PC-3) was 25 nM, the CC50 at 72 h [2] was under 30 nM and the CC50 at 72 h [3] was 34 nM. For the same compound, the CC50 at 72 h [4] was under 30 nM, the Selectivity ratio [5] was 0.18 and the Selectivity ratio [6] was 0.38. For the same compound, the Selectivity ratio [7] was 0.7 and the Selectivity ratio [8] was 1.46.
Work on `CC(=O)O[C@H]1C(=O)[C@@]2(C)[C@H]([C@H](OC(=O)c3ccccc3)[C@]3(O)C[C@H](OC(=O)[C@H](OC(=O)CCCc4cn(CCCCCCCCCCC(=O)NCCCC[C@H](NC(=O)N[C@@H](CCC(=O)O)C(=O)O)C(=O)O)nn4)[C@@H](NC(=O)c4ccccc4)c4ccccc4)C(C)=C1C3(C)C)[C@]1(OC(C)=O)CO[C@@H]1C[C@@H]2O` yielded a CC50 at 72 h [1] of 66 nM, a CC50 (LNCaP) of 835 nM and a CC50 (CWR22R) of 1000 nM. For the same compound, the CC50 (PC-3) was 1230 nM, the CC50 at 72 h [2] was 294 nM and the CC50 at 72 h [3] was 189 nM. It also gave a CC50 at 72 h [4] of 20 nM, a Selectivity ratio [5] of 0.99 and a Selectivity ratio [6] of 0.7. The Selectivity ratio [7] was 1.2 and the Selectivity ratio [8] was 0.85.
Work on `CC(=O)O[C@H]1C(=O)[C@@]2(C)[C@H]([C@H](OC(=O)c3ccccc3)[C@]3(O)C[C@H](OC(=O)[C@H](OC(=O)CCCc4cn(CCCCCC(=O)N(CCCC[C@H](NC(=O)N[C@@H](CCC(=O)O)C(=O)O)C(=O)O)Cc5ccc(Cl)cc5)nn4)[C@@H](NC(=O)c4ccccc4)c4ccccc4)C(C)=C1C3(C)C)[C@]1(OC(C)=O)CO[C@@H]1C[C@@H]2O` yielded a CC50 at 72 h [1] of 48 nM, a CC50 (LNCaP) of 1480 nM and a CC50 (CWR22R) of 1670 nM. For the same compound, the CC50 (PC-3) was 1030 nM, the CC50 at 72 h [2] was 40 nM and the CC50 at 72 h [3] was 78 nM. The CC50 at 72 h [4] was under 30 nM, the Selectivity ratio [5] was 0.34 and the Selectivity ratio [6] was 0.26. The Selectivity ratio [7] was 0.91 and the Selectivity ratio [8] was 0.7.
In the case of `CC(=O)O[C@H]1C(=O)[C@@]2(C)[C@H]([C@H](OC(=O)c3ccccc3)[C@]3(O)C[C@H](OC(=O)[C@H](OC(=O)CCCc4cn(CCCCCC(=O)N(CCCC[C@H](NC(=O)N[C@@H](CCC(=O)O)C(=O)O)C(=O)O)Cc5ccc(F)cc5)nn4)[C@@H](NC(=O)c4ccccc4)c4ccccc4)C(C)=C1C3(C)C)[C@]1(OC(C)=O)CO[C@@H]1C[C@@H]2O`, the CC50 at 72 h [1] is reported as under 30 nM, the CC50 (LNCaP) is reported as 365 nM and the CC50 (CWR22R) is reported as 1320 nM. It also gave a CC50 (PC-3) of 740 nM, a CC50 at 72 h [2] of under 30 nM and a CC50 at 72 h [3] of 49 nM. It also gave a CC50 at 72 h [4] of under 30 nM, a Selectivity ratio [5] of 1.01 and a Selectivity ratio [6] of 0.59. For the same compound, the Selectivity ratio [7] was 0.82 and the Selectivity ratio [8] was 0.48.
`CC(=O)O[C@H]1C(=O)[C@@]2(C)[C@H]([C@H](OC(=O)c3ccccc3)[C@]3(O)C[C@H](OC(=O)[C@H](OC(=O)CCCc4cn(CCCCCCCCCCNC(=O)NCCCC[C@H](NC(=O)N[C@@H](CCC(=O)O)C(=O)O)C(=O)O)nn4)[C@@H](NC(=O)c4ccccc4)c4ccccc4)C(C)=C1C3(C)C)[C@]1(OC(C)=O)CO[C@@H]1C[C@@H]2O` gave a CC50 at 72 h [1] of 101 nM, a CC50 (LNCaP) of 60 nM and a CC50 (CWR22R) of 132 nM. For the same compound, the CC50 (PC-3) was 75 nM, the CC50 at 72 h [2] was 42 nM and the CC50 at 72 h [3] was 162 nM. The CC50 at 72 h [4] was 5 nM, the Selectivity ratio [5] was 0.63 and the Selectivity ratio [6] was 0.71. The Selectivity ratio [7] was 0.83 and the Selectivity ratio [8] was 0.93.
`CC(=O)O[C@H]1C(=O)[C@@]2(C)[C@H]([C@H](OC(=O)c3ccccc3)[C@]3(O)C[C@H](OC(=O)[C@H](OC(=O)CCCc4cn(CCCCCNC(=O)NCCCC[C@H](NC(=O)N[C@@H](CCC(=O)O)C(=O)O)C(=O)O)nn4)[C@@H](NC(=O)c4ccccc4)c4ccccc4)C(C)=C1C3(C)C)[C@]1(OC(C)=O)CO[C@@H]1C[C@@H]2O` showed a CC50 at 72 h [1] of 37 nM, a CC50 (LNCaP) of 13 nM and a CC50 (CWR22R) of 34 nM. For the same compound, the CC50 (PC-3) was 25 nM, the CC50 at 72 h [2] was 14 nM and the CC50 at 72 h [3] was 56 nM. The Selectivity ratio [5] was 0.99, the Selectivity ratio [6] was 0.56 and the Selectivity ratio [7] was 1.09. The Selectivity ratio [8] was 0.61.
